Source: paper PMC10303271, “Synthesis and Receptor Binding Studies of α5 GABAAR Selective Novel Imidazodiazepines Targeted for Psychiatric and Cognitive Disorders” (Molecules, 2023)

Tests used:
NR2B = assay: PDSP primary binding NR2B; settings: primary binding, 10,000 nM; last figure of the line = mean of the 4 before it
Protocol: (§1) To determine if any off-target receptor-binding effects are present, all the novel ligands were sent to the National Institute of Mental Health (NIMH), Psychoactive Drug Screening Program (PDSP). The ligands were screened over a panel of 47 receptors, ion channels, and transporters to determine any other possible interactions with […]. The hERG-binding was also determined. […] No binding of the test compounds to calcium channels was observed. […] It is necessary to screen the compounds for hERG-binding during the early process of drug discovery. The unintentional binding of many drugs to hERG can cause blockade of hERG K+ channels in the heart, which can cause many side effects including cardiac arrhythmias and sudden death. […] All of the α5 imidazodiazepines were tested for hERG-binding.
(§2) The NIMH PDSP assay protocol book [https://kidbdev.med.unc.edu/databases/PDSP%20Protocols%20II%202013-03-28.pdf accessed on 23 April 2023]. describes the protocols for primary and secondary radio-ligand binding assays. These assays were carried out in a final volume of 125 µL per well in the appropriate binding buffer.
(§3) The binding of a ligand to a receptor, ion channel, or transporter was determined in the […] of 10 µM of the appropriate reference compound. […] Plates were incubated in the dark for 90 min at rt, and the reactions were stopped by vacuum filtration onto 0.3% polyethyleneimine (PEI) soaked 96-well filter mats using a 96-well Filtermateharvester. This was followed by three washes with cold PBS buffer. Radioactivity was then counted on a Microbeta counter. Nonlinear regression was used to analyze the data with N = 6 replicates.

5-HT5A = target: T1, 5-HT5A (Homo sapiens, UniProt P47898); assay: PDSP primary binding 5-HT5A; settings: 1.5 h; primary binding, 10,000 nM; last figure of the line = mean of the 4 before it; read-out: 5-HT5A, PDSP raw data, mean
T1 construct: purchased NIMH Psychoactive Drug Screening Program (PDSP)
Protocol: as §1, §2, §3

NTS1 = target: T2, NTS1 (Homo sapiens, UniProt P30989); assay: PDSP primary binding NTS1; settings: primary binding, 10,000 nM; last figure of the line = mean of the 4 before it; read-out: NTS1, PDSP raw data, mean
T2 construct: purchased NIMH Psychoactive Drug Screening Program (PDSP)
Protocol: as §1, §2, §3

Alpha2C = target: T3, Alpha2C (Homo sapiens, UniProt P18825); assay: PDSP primary binding Alpha2C; settings: 1.5 h; primary binding, 10,000 nM; last figure of the line = mean of the 4 before it; read-out: Alpha2C, PDSP raw data, mean
T3 construct: purchased NIMH Psychoactive Drug Screening Program (PDSP)
T3 sequence (P18825 1-462): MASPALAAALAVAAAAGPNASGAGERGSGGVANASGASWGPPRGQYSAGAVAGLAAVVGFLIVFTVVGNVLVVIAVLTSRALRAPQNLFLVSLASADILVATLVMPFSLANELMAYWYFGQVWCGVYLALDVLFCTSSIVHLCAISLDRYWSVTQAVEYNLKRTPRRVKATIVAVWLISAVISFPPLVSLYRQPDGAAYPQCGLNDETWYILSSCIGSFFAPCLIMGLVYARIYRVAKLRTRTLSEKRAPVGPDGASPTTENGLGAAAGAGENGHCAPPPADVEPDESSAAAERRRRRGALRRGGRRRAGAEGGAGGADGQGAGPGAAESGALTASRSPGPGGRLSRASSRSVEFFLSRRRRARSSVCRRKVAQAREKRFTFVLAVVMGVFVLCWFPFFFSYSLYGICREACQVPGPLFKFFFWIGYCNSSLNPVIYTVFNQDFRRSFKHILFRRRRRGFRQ
Protocol: as §1, §2, §3

D3 = target: T4, D3 (Homo sapiens, UniProt P35462); assay: PDSP primary binding D3; settings: 1.5 h; primary binding, 10,000 nM; last figure of the line = mean of the 4 before it; read-out: D3, PDSP raw data, mean
T4 construct: purchased NIMH Psychoactive Drug Screening Program (PDSP)
Protocol: as §1, §2, §3

M4 D = target: T5, M4 D (Homo sapiens, UniProt P08173, A203G/Y113C); assay: PDSP primary binding M4 D; settings: primary binding, 10,000 nM; last figure of the line = mean of the 4 before it; read-out: M4 D, PDSP raw data, mean
T5 construct: purchased NIMH Psychoactive Drug Screening Program (PDSP)
T5 sequence (P08173 1-479 Y113C/A203G): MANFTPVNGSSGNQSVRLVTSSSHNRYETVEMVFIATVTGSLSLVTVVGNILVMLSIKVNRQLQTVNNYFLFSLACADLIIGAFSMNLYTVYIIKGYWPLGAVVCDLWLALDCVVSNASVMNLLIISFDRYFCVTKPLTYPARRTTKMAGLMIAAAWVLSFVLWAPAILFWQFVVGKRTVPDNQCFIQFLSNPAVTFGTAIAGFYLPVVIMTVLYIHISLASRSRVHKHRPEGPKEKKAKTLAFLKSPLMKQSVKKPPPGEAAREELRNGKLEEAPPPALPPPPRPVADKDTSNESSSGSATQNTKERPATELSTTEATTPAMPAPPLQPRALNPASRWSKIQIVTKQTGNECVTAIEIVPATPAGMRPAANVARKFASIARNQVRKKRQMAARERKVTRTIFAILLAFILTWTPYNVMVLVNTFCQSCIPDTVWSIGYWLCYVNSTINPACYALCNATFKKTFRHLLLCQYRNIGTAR
Protocol: as §1, §2, §3

Ca channel human = assay: PDSP primary binding Ca channel; settings: primary binding, 10,000 nM; last figure of the line = mean of the 4 before it
Protocol: as §1, §2, §3

HCA2 = target: T6, HCA2 (Homo sapiens, UniProt Q8TDS4); assay: PDSP primary binding HCA2; settings: primary binding, 10,000 nM; last figure of the line = mean of the 4 before it; read-out: HCA2, PDSP raw data, mean
T6 construct: purchased NIMH Psychoactive Drug Screening Program (PDSP)
Protocol: as §1, §2, §3

Alpha2Beta4 = target: T7, Alpha2Beta4 (Rattus norvegicus, UniProt P12389+P12392); assay: PDSP primary binding Alpha2Beta4; settings: primary binding, 10,000 nM; last figure of the line = mean of the 4 before it; read-out: Alpha2Beta4, PDSP raw data, mean
T7 construct: purchased NIMH Psychoactive Drug Screening Program (PDSP)
Protocol: as §1, §2, §3

5-HT4 = target: T8, 5-HT4 (Homo sapiens, UniProt Q13639); assay: PDSP primary binding 5-HT4; settings: 1.5 h; primary binding, 10,000 nM; last figure of the line = mean of the 4 before it; read-out: 5-HT4, PDSP raw data, mean
T8 construct: purchased NIMH Psychoactive Drug Screening Program (PDSP)
Protocol: as §1, §2, §3

Alpha3Beta2 = target: T9, Alpha3Beta2 (Rattus norvegicus, UniProt P04757+P12390); assay: PDSP primary binding Alpha3Beta2; settings: primary binding, 10,000 nM; last figure of the line = mean of the 4 before it; read-out: Alpha3Beta2, PDSP raw data, mean
T9 construct: purchased NIMH Psychoactive Drug Screening Program (PDSP)
Protocol: as §1, §2, §3

T8 sequence (Q13639 whole entry): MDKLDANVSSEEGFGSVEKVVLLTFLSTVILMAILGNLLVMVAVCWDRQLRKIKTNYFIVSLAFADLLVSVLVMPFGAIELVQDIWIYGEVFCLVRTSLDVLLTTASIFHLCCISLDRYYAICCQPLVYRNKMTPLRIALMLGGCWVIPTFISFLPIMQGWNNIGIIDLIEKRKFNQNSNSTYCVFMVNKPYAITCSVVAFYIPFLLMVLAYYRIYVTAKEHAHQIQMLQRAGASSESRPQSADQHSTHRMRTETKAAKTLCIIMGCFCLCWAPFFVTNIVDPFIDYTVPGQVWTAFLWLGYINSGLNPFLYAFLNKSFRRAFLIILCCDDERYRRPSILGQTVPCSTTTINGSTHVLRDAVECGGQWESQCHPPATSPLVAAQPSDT
T1 sequence (P47898 whole entry): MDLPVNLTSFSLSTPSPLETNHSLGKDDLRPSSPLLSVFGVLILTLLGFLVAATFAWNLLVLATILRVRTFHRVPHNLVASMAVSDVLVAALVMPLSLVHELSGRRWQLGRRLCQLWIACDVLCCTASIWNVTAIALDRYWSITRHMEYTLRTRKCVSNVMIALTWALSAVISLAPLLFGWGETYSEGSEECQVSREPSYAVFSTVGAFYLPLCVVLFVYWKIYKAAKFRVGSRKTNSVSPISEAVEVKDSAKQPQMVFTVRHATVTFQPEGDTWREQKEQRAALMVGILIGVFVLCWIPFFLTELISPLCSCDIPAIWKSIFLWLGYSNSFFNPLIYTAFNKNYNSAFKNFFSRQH
T7 sequence (P12389 28-511): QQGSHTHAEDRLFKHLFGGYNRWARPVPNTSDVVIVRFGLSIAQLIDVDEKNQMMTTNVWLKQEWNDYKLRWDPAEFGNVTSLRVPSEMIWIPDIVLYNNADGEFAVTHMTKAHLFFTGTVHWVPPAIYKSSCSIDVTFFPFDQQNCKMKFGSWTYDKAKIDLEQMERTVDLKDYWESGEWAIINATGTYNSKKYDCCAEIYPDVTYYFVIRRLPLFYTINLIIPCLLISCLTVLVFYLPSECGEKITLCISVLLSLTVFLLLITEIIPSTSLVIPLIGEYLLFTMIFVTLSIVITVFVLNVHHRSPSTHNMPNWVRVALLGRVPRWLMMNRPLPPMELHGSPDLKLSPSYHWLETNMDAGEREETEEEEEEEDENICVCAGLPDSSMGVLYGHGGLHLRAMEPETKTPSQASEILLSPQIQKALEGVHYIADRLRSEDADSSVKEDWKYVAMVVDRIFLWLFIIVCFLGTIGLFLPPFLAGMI
T7 sequence (P12392 21-495): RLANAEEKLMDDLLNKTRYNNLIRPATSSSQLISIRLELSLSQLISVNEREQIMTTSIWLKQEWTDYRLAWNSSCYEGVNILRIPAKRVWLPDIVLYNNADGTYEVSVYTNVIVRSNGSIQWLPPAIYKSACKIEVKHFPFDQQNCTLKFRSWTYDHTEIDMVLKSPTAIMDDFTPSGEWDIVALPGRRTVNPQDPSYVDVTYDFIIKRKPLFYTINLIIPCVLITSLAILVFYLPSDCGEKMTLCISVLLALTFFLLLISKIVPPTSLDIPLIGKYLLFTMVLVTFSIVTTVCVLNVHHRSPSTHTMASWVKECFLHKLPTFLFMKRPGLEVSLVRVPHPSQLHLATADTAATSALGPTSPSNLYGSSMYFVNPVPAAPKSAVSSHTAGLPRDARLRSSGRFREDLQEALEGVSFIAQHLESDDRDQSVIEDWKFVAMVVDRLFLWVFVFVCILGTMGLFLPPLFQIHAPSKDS
T9 sequence (P04757 26-499): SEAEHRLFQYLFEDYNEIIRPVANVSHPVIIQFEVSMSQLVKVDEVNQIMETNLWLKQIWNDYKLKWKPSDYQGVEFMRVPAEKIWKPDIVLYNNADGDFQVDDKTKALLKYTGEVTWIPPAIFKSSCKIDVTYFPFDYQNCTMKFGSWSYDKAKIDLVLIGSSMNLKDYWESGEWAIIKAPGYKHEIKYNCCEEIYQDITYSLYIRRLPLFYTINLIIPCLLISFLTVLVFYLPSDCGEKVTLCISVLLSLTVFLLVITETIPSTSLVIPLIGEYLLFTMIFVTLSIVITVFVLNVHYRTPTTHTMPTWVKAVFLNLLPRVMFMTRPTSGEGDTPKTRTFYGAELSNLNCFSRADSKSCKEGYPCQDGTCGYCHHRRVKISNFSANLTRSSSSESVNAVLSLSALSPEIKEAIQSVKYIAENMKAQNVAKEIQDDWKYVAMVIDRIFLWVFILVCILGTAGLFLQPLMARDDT
T9 sequence (P12390 25-500): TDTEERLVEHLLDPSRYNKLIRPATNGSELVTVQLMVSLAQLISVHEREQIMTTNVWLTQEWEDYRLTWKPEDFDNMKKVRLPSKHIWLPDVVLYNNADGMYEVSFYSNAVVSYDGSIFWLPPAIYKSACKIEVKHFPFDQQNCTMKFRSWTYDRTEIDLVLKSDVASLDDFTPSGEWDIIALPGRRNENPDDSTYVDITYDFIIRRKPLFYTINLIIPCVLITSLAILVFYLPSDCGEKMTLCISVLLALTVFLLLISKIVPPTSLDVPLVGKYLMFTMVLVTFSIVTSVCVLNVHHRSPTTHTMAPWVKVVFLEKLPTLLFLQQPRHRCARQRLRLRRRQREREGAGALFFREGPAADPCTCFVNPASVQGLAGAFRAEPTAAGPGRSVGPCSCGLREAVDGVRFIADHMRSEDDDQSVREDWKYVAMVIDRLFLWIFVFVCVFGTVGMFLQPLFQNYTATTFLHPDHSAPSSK
T4 sequence (P35462 whole entry): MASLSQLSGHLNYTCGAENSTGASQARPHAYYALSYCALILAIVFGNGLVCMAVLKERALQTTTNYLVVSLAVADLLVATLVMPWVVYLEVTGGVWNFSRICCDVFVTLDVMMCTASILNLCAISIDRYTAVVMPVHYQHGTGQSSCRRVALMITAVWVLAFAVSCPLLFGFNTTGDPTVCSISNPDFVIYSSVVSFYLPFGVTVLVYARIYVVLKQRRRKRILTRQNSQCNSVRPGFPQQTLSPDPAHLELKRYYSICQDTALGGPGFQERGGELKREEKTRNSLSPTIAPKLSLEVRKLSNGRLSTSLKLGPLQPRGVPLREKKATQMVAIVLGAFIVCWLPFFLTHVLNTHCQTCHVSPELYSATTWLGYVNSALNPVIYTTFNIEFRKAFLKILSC
T6 sequence (Q8TDS4 whole entry): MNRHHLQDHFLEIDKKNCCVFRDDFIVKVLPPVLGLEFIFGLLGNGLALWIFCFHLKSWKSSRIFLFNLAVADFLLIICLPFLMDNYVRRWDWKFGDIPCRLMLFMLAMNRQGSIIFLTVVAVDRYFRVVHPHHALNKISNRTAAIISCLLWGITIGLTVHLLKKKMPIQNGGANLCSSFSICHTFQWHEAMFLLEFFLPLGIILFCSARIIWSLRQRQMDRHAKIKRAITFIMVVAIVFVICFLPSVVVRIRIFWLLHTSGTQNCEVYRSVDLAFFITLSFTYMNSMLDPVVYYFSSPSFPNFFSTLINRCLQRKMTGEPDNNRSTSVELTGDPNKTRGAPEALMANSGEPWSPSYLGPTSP
T2 sequence (P30989 whole entry): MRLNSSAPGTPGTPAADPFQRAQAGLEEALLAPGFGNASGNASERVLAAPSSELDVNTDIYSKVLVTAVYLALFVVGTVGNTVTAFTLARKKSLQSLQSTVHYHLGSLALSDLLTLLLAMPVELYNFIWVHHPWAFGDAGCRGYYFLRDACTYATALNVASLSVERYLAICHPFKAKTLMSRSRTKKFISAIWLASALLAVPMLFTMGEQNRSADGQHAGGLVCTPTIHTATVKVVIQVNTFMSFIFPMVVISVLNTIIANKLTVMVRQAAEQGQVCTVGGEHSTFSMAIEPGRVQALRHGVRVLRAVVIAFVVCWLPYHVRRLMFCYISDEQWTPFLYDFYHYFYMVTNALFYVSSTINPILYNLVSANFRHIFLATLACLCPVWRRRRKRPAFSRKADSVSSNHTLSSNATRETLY

| SMILES | NR2B, PDSP raw data, mean (NR2B) | inhibition at 10 µM (5-HT5A) | inhibition at 10 µM (NTS1) | inhibition at 10 µM (Alpha2C) | inhibition at 10 µM (D3) | inhibition at 10 µM (M4 D) | Ca channel human, PDSP raw data, mean (Ca channel human) | inhibition at 10 µM (HCA2) | inhibition at 10 µM (Alpha2Beta4) | inhibition at 10 µM (5-HT4) | inhibition at 10 µM (Alpha3Beta2) |
| --- | --- | --- | --- | --- | --- | --- | --- | --- | --- | --- | --- |
| C#Cc1ccc2c(c1)C(c1ccccn1)=N[C@@H](C)c1c(C(=O)NC)ncn1-2 [Compound 23, (S)-8-Ethynyl-N,4-dimethyl-6-(pyridin-2′-yl)-4H-benzo[f]imidazo[1,5-a][1,4]diazepine-3-carboxamide] | -22.69% | -2.76% | -5.89% | -0.12% | 7.31% | 50.5% | 14.91% | 15.2% | 4.5% | -1.06% | 7.13% |
| C[C@H]1N=C(c2ccccc2F)c2cc(-c3ccccc3)ccc2-n2cnc(C(=O)N(C)C)c21 [Compound 5, (R)-6-(2′-Fluorophenyl)-N,N,4-trimethyl-8-phenyl-4H-benzo[f]imidazo[1,5-a][1,4]diazepine-3-carboxamide] | 3.79% | 53.6% | -16.7% | 12.9% | -3.57% | 27.2% | 39.05% | -9.82% | 4.82% | -14.4% | 2.14% |
| CCc1noc(-c2ncn3c2CN=C(c2ccccc2F)c2cc(C4CC4)ccc2-3)n1 [Compound 44, 5-(8-Cyclopropyl-6-(2′-fluorophenyl)-4H-benzo[f]imidazo[1,5-a][1,4]diazepin-3-yl)-3-ethyl-1,2,4-oxadiazole] | 21.74% | 5.08% | -62.2% | 15.7% | 16.1% | 35.9% | 36.68% | -11.9% | 8.23% | -9.26% | -0.02% |
| CCc1noc(-c2ncn3c2[C@@H](C)N=C(c2ccccc2F)c2cc(C4CC4)ccc2-3)n1 [Compound 46, (R)-5-(8-Cyclopropyl-6-(2′-fluorophenyl)-4-methyl-4H-benzo[f]imidazo[1,5-a][1,4]diazepin-3-yl)-3-ethyl-1,2,4-oxadiazole] | 32.88% | 23.6% | -29.8% | 11.9% | 27.8% | 33.1% | 36.53% | -17.2% | 6.41% | 3.05% | 5.55% |
| C#Cc1ccc2c(c1)C(c1ccccn1)=N[C@@H](C)c1c(C(=O)N(C)C)ncn1-2 [Compound 31, (S)-8-Ethynyl-N,N,4-trimethyl-6-(pyridin-2′-yl)-4H-benzo[f]imidazo[1,5-a][1,4]diazepine-3-carboxamide] | -10.18% | -7.46% | 0.28% | 7.52% | 1.06% | 56.8% | 4.19% | 20.8% | 6.58% | -0.81% | 3.57% |
| CC(C)c1noc(-c2ncn3c2[C@@H](C)N=C(c2ccccc2F)c2cc(Cl)ccc2-3)n1 [Compound 37, (R)-5-(8-Chloro-6-(2′-fluorophenyl)-4-methyl-4H-benzo[f]imidazo[1,5-a][1,4]diazepin-3-yl)-3-isopropyl-1,2,4-oxadiazole] | 34.46% | -2.71% | -16.3% | 2.74% | -0.7% | -19.7% | 7.04% | 35.2% | -5.48% | 48% | 5.77% |
| CCc1noc(-c2ncn3c2[C@@H](C)N=C(c2ccccc2F)c2cc(-c4ccccc4)ccc2-3)n1 [Compound 35, (R)-3-Ethyl-5-(6-(2′-fluorophenyl)-4-methyl-8-phenyl-4H-benzo[f]imidazo[1,5-a][1,4]diazepin-3-yl)-1,2,4-oxadiazole] | 24.81% | 19.5% | -32.6% | 31.6% | 16.2% | 15.7% | 61.85% | -18.7% | 10.7% | -0.48% | 5.43% |
| C#Cc1ccc2c(c1)C(c1ccccc1F)=N[C@H](C)c1c(C(=S)N(C)C)ncn1-2 [Compound 33, (R)-8-Ethynyl-6-(2′-fluorophenyl)-N,N,4-trimethyl-4H-benzo[f]imidazo[1,5-a][1,4]diazepine-3-carbothioamide] | 3.79% | 53.6% | -16.7% | 12.9% | -3.57% | 27.2% | 39.05% | -9.82% | 4.82% | -14.4% | 2.14% |
| C[C@H]1N=C(c2ccccc2F)c2cc(Cl)ccc2-n2cnc(-c3nc(C4CC4)no3)c21 [Compound 38, (R)-5-(8-Chloro-6-(2′-fluorophenyl)-4-methyl-4H-benzo[f]imidazo[1,5-a][1,4]diazepin-3-yl)-3-cyclopropyl-1,2,4-oxadiazole] | 31.49% | -2.84% | -13.2% | 9.93% | -0.07% | -18.7% | 30.64% | -1.1% | 0.54% | 38.7% | 6.96% |
